Molecular target: T1, NK-3 receptor (Homo sapiens, UniProt P29371)
T1 construct: expressed in transfected cells
T1 sequence (P29371 1-465): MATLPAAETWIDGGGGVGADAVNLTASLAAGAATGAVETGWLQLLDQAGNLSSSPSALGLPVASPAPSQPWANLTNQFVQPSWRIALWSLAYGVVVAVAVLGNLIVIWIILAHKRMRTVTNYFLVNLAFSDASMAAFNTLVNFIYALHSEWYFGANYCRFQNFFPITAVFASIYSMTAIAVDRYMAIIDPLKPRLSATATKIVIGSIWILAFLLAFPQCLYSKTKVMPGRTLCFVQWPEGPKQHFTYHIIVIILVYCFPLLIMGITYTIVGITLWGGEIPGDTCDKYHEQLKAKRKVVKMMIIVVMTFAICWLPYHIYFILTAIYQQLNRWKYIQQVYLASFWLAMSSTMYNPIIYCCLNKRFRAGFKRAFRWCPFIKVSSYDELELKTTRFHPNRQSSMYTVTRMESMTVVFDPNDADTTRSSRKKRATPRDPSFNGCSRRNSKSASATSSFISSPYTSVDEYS
Assay: Assay for NK-3 functional activity (senktide-induced calcium mobilization, FLIPR)
Assay type: cell-based
Conditions: compared with the other diastereomer (sulfur center) separated by chiral SFC
From the text: A human NK-3 receptor gene was cloned using methods similar to those described for other human NK receptors (Aharony et al., Mol. Pharmacol. 45:9-19, 1994; Caccese et al., Neuropeptides 33, 239-243, 1999). The DNA sequence of the cloned NK-3 receptor differed from the published sequence (Buell et al., FEBS Letts. 299, 90-95, 1992; Huang et al., Biochem. Biophys. Res. Commun 184,966-972, 1992) having a silent single T>C base change at nucleotide 1320 of the coding sequence. Since the change is silent, the cloned gene provides a primary amino acid sequence for the encoded NK-3 receptor protein identical to the published sequence. […]
Generally, NK-3 functional activity may be assessed by using calcium mobilization assays in stable NK-3r-expressing cell lines. […] Agonists may be added to the cells and fluorescence responses continuously recorded for up to 5 min. […] The action of agonists may be assessed by observing their intrinsic activity in such a system.
NK-3 receptor expressing CHO cells were maintained in growth media (Ham's F12 medium, 10% FBS, 2 mM L-glutamine, and […] Hygromycin B). […] To quantify NK-3 receptor-induced calcium mobilization, cells were first washed with assay buffer consisting of Hanks' Balanced Salt Solution, 15 mM HEPES, and 2.5 mM probenecid, pH 7.4. […] The resulting data was analyzed using XLfit software (IDBS manufacturer) to determine EC50 and IC50 values.

## C[S+]([O-])c1c(-c2ccccc2)nc2ccccc2c1C(=O)N[C@H](c1ccccc1)C1CC1 (single isomer, unassigned) [Example 8 second eluting compound]
  biological activity when tested in the assay for NK-3 functional activity: substantially greater biological activity

## CC[C@H](NC(=O)c1c([S+](C)[O-])c(-c2ccccc2)nc2ccccc12)c1ccccc1 (single isomer, unassigned) [Example 2 first eluting compound]
  biological activity when tested in the assay for NK-3 functional activity: substantially greater biological activity

Source: patent US20100120850A1, “Quinoline Derivatives, Pharmaceutical Compositions Comprising Them, and Their Use in Treating Central Nervous System and Peripheral Diseases” (priority 2007, published 2010)
